{
  "source": "patent US20170304286A1",
  "about": "(LAUNX BIOMEDICAL CO., LTD., priority 2014, published 2017)",
  "type_in_all_cases": "cell-based",
  "key": {"[1]": {"test_system": "HeLa (CervixAdenocarcinoma)", "experiment": "WST-1 cell viability, cervical cancer cell line HeLa", "settings": "Homo sapiens, 72 h", "procedure": "(§1) The cell numbers were counted and reseed as 2×10^6 in culture plate/flask. Then, the culture medium were added to a volume of 10 ml, and the cells were cultured for 2-3 days. Then, the cells were suspended for loading into 96-well plates. The number of cells was 3000 and the volume of the culture medium was 100 μl each well.\n(§2) Removing the original culture medium from 96-well plate. Then add 100 μl of commercially drug at a concentration of 10 μM per well. After 72 hours, add the diluted WST-1 reagent to the well with 100 μl/well, and the diluted WST-1 reagent was acquired from the dilution of 9:1 medium and WST-1 stock reagent. Finally, the total volume of each well was 200 μl/well. Culture the 96-well plate at 37° C. for 30 to 90 minutes. Detecting and calculate the survival rate of each cancer cells with an ELISA reader at OD450 nm."}, "[2]": {"test_system": "C-33A (Cervical carcinoma)", "experiment": "WST-1 cell viability, cervical cancer cell line C-33A", "settings": "Homo sapiens, 72 h", "procedure": "as §1, §2"}, "HCT116-wt": {"test_system": "HCT116-wt", "experiment": "WST-1 cell viability, colorectal cancer cell line HCT116-wt", "settings": "72 h", "procedure": "as §1, §2"}, "[3]": {"test_system": "BCC (basal cell carcinoma)", "experiment": "WST-1 cell viability, skin cancer cell line BCC", "settings": "72 h", "procedure": "as §1, §2"}, "LNCap": {"test_system": "LNCap", "experiment": "WST-1 cell viability, prostate cancer cell line LNCap", "settings": "Homo sapiens, 72 h", "procedure": "as §1, §2"}, "PC-3": {"test_system": "PC-3", "experiment": "WST-1 cell viability, prostate cancer cell line PC-3", "settings": "Homo sapiens", "procedure": "as §1, §2"}, "bladder cancer cells": {"test_system": "bladder cancer cells", "experiment": "Summary of cell viability, bladder cancer", "settings": "72 h, read-out: Inhibitory effect", "procedure": "as §2"}, "[4]": {"test_system": "SAS (Tongue squamouscell carcinoma)", "experiment": "WST-1 cell viability, tongue cancer cell line SAS", "settings": "72 h", "procedure": "as §1, §2"}, "[5]": {"test_system": "MDA-MB-231 (Mammary Gland, Adenocarcinoma)", "experiment": "WST-1 cell viability, breast cancer cell line MDA-MB-231", "settings": "Homo sapiens", "procedure": "as §1, §2"}, "[6]": {"test_system": "Hep3B (hepatocellular carcinoma)", "experiment": "WST-1 cell viability, hepatic cancer cell line Hep3B", "settings": "Homo sapiens, 72 h", "procedure": "as §1, §2"}, "BxPC-3": {"test_system": "BxPC-3", "experiment": "WST-1 cell viability, pancreatic cancer cell line BxPC-3", "settings": "Homo sapiens", "procedure": "as §1, §2"}, "[7]": {"experiment": "WST-1 cell viability, normal pulmonary epithelial cell line BEAS-2B", "settings": "human, BEAS-2B normal bronchial (pulmonary) epithelial cells", "description": "Subculture the different types of cancer cells."}, "[8]": {"settings": "average of 4 tests, read-out: survival rate (inhibition effect), Average"}, "[9]": {"settings": "run 0524-10 min, read-out: survival rate (inhibition effect)"}, "[10]": {"settings": "run 0526-10 min, read-out: survival rate (inhibition effect)"}, "[11]": {"settings": "run 0529-10 min, read-out: survival rate (inhibition effect)"}, "[12]": {"settings": "run 0531-10 min, read-out: survival rate (inhibition effect)"}, "[13]": {"settings": "run 0602-30 min, read-out: survival rate (inhibition effect)"}, "[14]": {"settings": "run 0605-10 min, read-out: survival rate (inhibition effect)"}, "[15]": {"settings": "run 0607-10 min, read-out: survival rate (inhibition effect)"}, "[16]": {"settings": "run 0609-10 min, read-out: survival rate (inhibition effect)"}},
  "note": "Where two headings read alike, the source gives them in different places.",
  "data": [
    {"smiles": "Fc1ccc([C@@H]2CCNC[C@H]2COc2ccc3c(c2)OCO3)cc1", "note": "[Paroxetine]", "values": [
      {"measurement": "viability at 10 µM", "setting": "[1]; [8]", "value": 63.8, "unit": "%"},
      {"measurement": "viability at 10 µM", "setting": "[1]; [9]", "value": 52.6, "unit": "%"},
      {"measurement": "viability at 10 µM", "setting": "[1]; [10]", "value": 78.3, "unit": "%"},
      {"measurement": "viability at 10 µM", "setting": "[1]; [11]", "value": 51, "unit": "%"},
      {"measurement": "viability at 10 µM", "setting": "[1]; [12]", "value": 73.4, "unit": "%"},
      {"measurement": "viability at 10 µM", "setting": "[2]; [8]", "value": 33.2, "unit": "%"},
      {"measurement": "viability at 10 µM", "setting": "[2]; [9]", "value": 33.2, "unit": "%"},
      {"measurement": "viability at 10 µM", "setting": "[2]; [10]", "value": 32.1, "unit": "%"},
      {"measurement": "viability at 10 µM", "setting": "[2]; [11]", "value": 31.7, "unit": "%"},
      {"measurement": "viability at 10 µM", "setting": "[2]; [12]", "value": 35.8, "unit": "%"},
      {"measurement": "viability at 10 µM", "setting": "HCT116-wt; [8]", "value": 28.4, "unit": "%"},
      {"measurement": "viability at 10 µM", "setting": "HCT116-wt; [13]", "value": 23.8, "unit": "%"},
      {"measurement": "viability at 10 µM", "setting": "HCT116-wt; [14]", "value": 30.6, "unit": "%"},
      {"measurement": "viability at 10 µM", "setting": "HCT116-wt; [15]", "value": 29.7, "unit": "%"},
      {"measurement": "viability at 10 µM", "setting": "HCT116-wt; [16]", "value": 29.5, "unit": "%"},
      {"measurement": "viability at 10 µM", "setting": "[3]; [8]", "value": 58.2, "unit": "%"},
      {"measurement": "viability at 10 µM", "setting": "[3]; [13]", "value": 42.1, "unit": "%"},
      {"measurement": "viability at 10 µM", "setting": "[3]; [14]", "value": 52.6, "unit": "%"},
      {"measurement": "viability at 10 µM", "setting": "[3]; [15]", "value": 41.1, "unit": "%"},
      {"measurement": "viability at 10 µM", "setting": "[3]; [16]", "value": 97, "unit": "%"},
      {"measurement": "viability at 10 µM", "setting": "LNCap; [8]", "value": 71.7, "unit": "%"},
      {"measurement": "viability at 10 µM", "setting": "LNCap; run LNCap-1-10 min, read-out: survival rate (inhibition effect)", "value": 65.9, "unit": "%"},
      {"measurement": "viability at 10 µM", "setting": "LNCap; run LNCap-2-20 min, read-out: survival rate (inhibition effect)", "value": 61.7, "unit": "%"},
      {"measurement": "viability at 10 µM", "setting": "LNCap; run LNCap-3-20 min, read-out: survival rate (inhibition effect)", "value": 80.9, "unit": "%"},
      {"measurement": "viability at 10 µM", "setting": "LNCap; run LNCap-4-20 min, read-out: survival rate (inhibition effect)", "value": 78.3, "unit": "%"},
      {"measurement": "viability at 10 µM", "setting": "PC-3; PC-3, 72 h, PC-3, average of 4 tests, read-out: survival rate (inhibition effect), Average", "value": 44.1, "unit": "%"},
      {"measurement": "viability at 10 µM", "setting": "PC-3; PC-3, PC-3, 72 h, run PC-3-0524-10 min, read-out: survival rate (inhibition effect)", "value": 33.5, "unit": "%"},
      {"measurement": "viability at 10 µM", "setting": "PC-3; PC-3, PC-3, 72 h, run PC-3-0526-10 min, read-out: survival rate (inhibition effect)", "value": 61.6, "unit": "%"},
      {"measurement": "viability at 10 µM", "setting": "PC-3; PC-3, PC-3, 72 h, run PC-3-0529-10 min, read-out: survival rate (inhibition effect)", "value": 39.3, "unit": "%"},
      {"measurement": "viability at 10 µM", "setting": "PC-3; PC-3, PC-3, 72 h, run PC-3-0531-10 min, read-out: survival rate (inhibition effect)", "value": 41.8, "unit": "%"},
      {"measurement": "viability at 10 µM", "setting": "bladder cancer cells", "value": 69.1, "unit": "%"},
      {"measurement": "viability at 10 µM", "setting": "[4]; SAS, average of 4 tests, read-out: survival rate (inhibition effect), Average", "value": 51.5, "unit": "%"},
      {"measurement": "viability at 10 µM", "setting": "[4]; summary, tongue cancer, read-out: Inhibitory effect", "value": 51.5, "unit": "%"},
      {"measurement": "viability at 10 µM", "setting": "[4]; SAS, run 6-26-10 min, read-out: survival rate (inhibition effect)", "value": 48.2, "unit": "%"},
      {"measurement": "viability at 10 µM", "setting": "[4]; SAS, run 6-28-10 min, read-out: survival rate (inhibition effect)", "value": 26.7, "unit": "%"},
      {"measurement": "viability at 10 µM", "setting": "[4]; SAS, run 6-30-10 min, read-out: survival rate (inhibition effect)", "value": 58, "unit": "%"},
      {"measurement": "viability at 10 µM", "setting": "[4]; SAS, run 7-3-10 min, read-out: survival rate (inhibition effect)", "value": 73.1, "unit": "%"},
      {"measurement": "viability at 10 µM", "setting": "[5]; MDA-MB-231, 72 h, MDA-MB-231, average of 4 tests, read-out: survival rate (inhibition effect), Average", "value": 41.8, "unit": "%"},
      {"measurement": "viability at 10 µM", "setting": "[5]; MDA-MB-231, MDA-MB-231, 72 h, run 0612-10 min, read-out: survival rate (inhibition effect)", "value": 47.9, "unit": "%"},
      {"measurement": "viability at 10 µM", "setting": "[5]; MDA-MB-231, MDA-MB-231, 72 h, run 0614-10 min, read-out: survival rate (inhibition effect)", "value": 35.9, "unit": "%"},
      {"measurement": "viability at 10 µM", "setting": "[5]; MDA-MB-231, MDA-MB-231, 72 h, run 0616-10 min, read-out: survival rate (inhibition effect)", "value": 42, "unit": "%"},
      {"measurement": "viability at 10 µM", "setting": "[5]; MDA-MB-231, MDA-MB-231, 72 h, run 0619-10 min, read-out: survival rate (inhibition effect)", "value": 41.2, "unit": "%"},
      {"measurement": "viability at 10 µM", "setting": "[6]; [8]", "value": 66.1, "unit": "%"},
      {"measurement": "viability at 10 µM", "setting": "[6]; run 0612-20 min, read-out: survival rate (inhibition effect)", "value": 69.8, "unit": "%"},
      {"measurement": "viability at 10 µM", "setting": "[6]; run 0614-20 min, read-out: survival rate (inhibition effect)", "value": 67.4, "unit": "%"},
      {"measurement": "viability at 10 µM", "setting": "[6]; run 0616-20 min, read-out: survival rate (inhibition effect)", "value": 66.2, "unit": "%"},
      {"measurement": "viability at 10 µM", "setting": "[6]; run 0619-20 min, read-out: survival rate (inhibition effect)", "value": 60.9, "unit": "%"},
      {"measurement": "viability at 10 µM", "setting": "BxPC-3; BXPC-3, 72 h, BxPC-3, average of 4 tests, read-out: survival rate (inhibition effect), Average", "value": 77.7, "unit": "%"},
      {"measurement": "viability at 10 µM", "setting": "BxPC-3; BXPC-3, BxPC-3, 72 h, run 3-4-30 min, read-out: survival rate (inhibition effect)", "value": 87, "unit": "%"},
      {"measurement": "viability at 10 µM", "setting": "BxPC-3; BXPC-3, BxPC-3, 72 h, run 3-7-3-30 min, read-out: survival rate (inhibition effect)", "value": 59.7, "unit": "%"},
      {"measurement": "viability at 10 µM", "setting": "BxPC-3; BXPC-3, BxPC-3, 72 h, run 3-7-4-30 min, read-out: survival rate (inhibition effect)", "value": 93.7, "unit": "%"},
      {"measurement": "viability at 72 h, 10 µM", "setting": "[7]; BEAS-2B, average of 4 tests, read-out: survival rate (inhibition effect), Average", "value": 98.6, "unit": "%"},
      {"measurement": "viability at 72 h, 10 µM", "setting": "[7]; BEAS-2B, run 0512-10 min, read-out: survival rate (inhibition effect)", "value": 103, "unit": "%"},
      {"measurement": "viability at 72 h, 10 µM", "setting": "[7]; BEAS-2B, run 0515-10 min, read-out: survival rate (inhibition effect)", "value": 96.4, "unit": "%"},
      {"measurement": "viability at 72 h, 10 µM", "setting": "[7]; BEAS-2B, run 0517-10 min, read-out: survival rate (inhibition effect)", "value": 94.6, "unit": "%"},
      {"measurement": "viability at 72 h, 10 µM", "setting": "[7]; summary, pulmonary epithelial cell line, read-out: Inhibitory effect", "value": 98.6, "unit": "%"}
    ]}
  ]
}
